Source: patent publication US11564969B2, “Immunorhelin compounds for intracellular infections” (ISR IMMUNE SYSTEM REGULATION HOLDING AB (PUBL), priority 2017, dated 2023)
Square brackets hold non-standard residues; d marks the D form. Peptide text beside a SMILES is read from it. dHis(τ-Bn) = N[C@H](Cc1cn(Cc2ccccc2)cn1)C(=O)O; pGlu = O=C1CC[C@@H](C(=O)O)N1

Columns and labels:
[1] = Solubility analysis in PBS (Analysis Method B); format: physicochemical; conditions: pH 7.4
Experimental: The solubility of compounds of the invention was tested as described in the general methods. Solubility was then graded according to a rating between 1 to 5, where 1 is most soluble and 5 is least soluble.

GnRHR = target: T1, GnRHR (Homo sapiens, UniProt P30968); conditions: 1000.0
T1 sequence (P30968 1-328): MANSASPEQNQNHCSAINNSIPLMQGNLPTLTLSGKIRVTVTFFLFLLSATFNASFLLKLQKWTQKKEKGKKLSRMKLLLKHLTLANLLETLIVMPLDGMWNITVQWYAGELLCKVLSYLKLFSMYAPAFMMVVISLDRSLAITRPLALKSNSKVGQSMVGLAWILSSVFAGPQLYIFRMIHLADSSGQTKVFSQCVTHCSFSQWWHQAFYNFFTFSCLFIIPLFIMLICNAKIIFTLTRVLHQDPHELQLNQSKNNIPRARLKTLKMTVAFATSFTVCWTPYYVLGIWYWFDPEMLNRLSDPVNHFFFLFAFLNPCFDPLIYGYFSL

CD4+ and CD8+ T cells = test: MHC class I expression on T cells after stimulation of PBMCs, flow cytometry; format: cell-based, human; conditions: PBMCs from healthy donor, with IL-2, 72 hours
Experimental: FIG. 1: Expression of MHC class I after stimulation of T cells with increasing concentrations of GnRH II. PBMCs from a healthy donor was stimulated with GnRH II and IL-2 for 72 hours. Data points represent mean fluorescent intensity of MCH class I expression on CD4^+ T cells (blue triangles) or CD8^+ T cells (black squares) measured with flow cytometry. Human peripheral blood mononuclear cells (PBMCs) were purified from healthy donors with Ficoll-Hypaque density centrifugation. Cells were cultured in RPMI-1640 medium (Invitrogen) supplemented with 10% fetal bovine serum, 100 μg/mL ampicilin and 100 μg/mL streptomycin for 24-72 hours in 37° C., 5% CO2. Cells were stimulated with a compound according to the invention and analysed for expression of cell specific surface markers and […] (monoclonal antibodies from BD Pharmingen) with flow cytomtery.

| Solubility grading [1] | GNRHR Stimulation at 1 μM (GnRHR) [percentage] | Compound | MHC class I expression on T cells (CD4+ and CD8+ T cells) |
| --- | --- | --- | --- |
| 5 | 50 | NC(=O)CNC(=O)[C@@H]1CCCN1C(=O)[C@H](Cc1ccc(O)cc1)NC(=O)[C@H](Cc1c[nH]c2ccccc12)NC(=O)[C@@H](Cc1c[nH]c2ccccc12)NC(=O)[C@H](Cc1ccc(O)cc1)NC(=O)[C@H](CO)NC(=O)[C@H](Cc1c[nH]c2ccccc12)NC(=O)[C@H](Cc1c[nH]cn1)NC(=O)[C@@H]1CCC(=O)N1 [Compound 64, pGlu-His-Trp-Ser-Tyr-D-Trp-Trp-Tyr-Pro-Gly-amide] ([pGlu]HWSY[dW]WYPG-NH2) | – |
| 4 | 72 | NC(=O)CNC(=O)[C@@H]1CCCN1C(=O)[C@H](Cc1ccc(O)cc1)NC(=O)[C@H](Cc1c[nH]c2ccccc12)NC(=O)[C@@H](Cc1c[nH]c2ccccc12)NC(=O)[C@H](Cc1c[nH]cn1)NC(=O)[C@H](CO)NC(=O)[C@H](Cc1c[nH]c2ccccc12)NC(=O)[C@H](Cc1c[nH]cn1)NC(=O)[C@@H]1CCC(=O)N1 [Compound 65, pGlu-His-Trp-Ser-His-D-Trp-Trp-Tyr-Pro-Gly-amide] ([pGlu]HWSH[dW]WYPG-NH2) | – |
| 5 | 83 | N=C(N)NCCC[C@H](NC(=O)[C@H](Cc1c[nH]c2ccccc12)NC(=O)[C@@H](Cc1c[nH]c2ccccc12)NC(=O)[C@H](Cc1ccc(O)cc1)NC(=O)[C@H](CO)NC(=O)[C@H](Cc1c[nH]c2ccccc12)NC(=O)[C@H](Cc1c[nH]cn1)NC(=O)[C@@H]1CCC(=O)N1)C(=O)N1CCC[C@H]1C(=O)NCC(N)=O [Compound 66, pGlu-His-Trp-Ser-Tyr-D-Trp-Trp-Arg-Pro-Gly-amide] ([pGlu]HWSY[dW]WRPG-NH2) | – |

More lines, now with the values behind:

| Compound | Solubility grading [1] | GNRHR Stimulation at 1 μM (GnRHR) [percentage] | MHC class I expression on T cells (CD4+ and CD8+ T cells) |
| --- | --- | --- | --- |
| CCNC(=O)[C@@H]1CCCN1C(=O)[C@H](Cc1ccc(O)cc1)NC(=O)[C@H](Cc1c[nH]c2ccccc12)NC(=O)[C@@H](Cc1cn(Cc2ccccc2)cn1)NC(=O)[C@H](Cc1c[nH]cn1)NC(=O)[C@H](CO)NC(=O)[C@H](Cc1c[nH]c2ccccc12)NC(=O)[C@H](Cc1c[nH]cn1)NC(=O)[C@@H]1CCC(=O)N1 [Compound 63, pGlu-His-Trp-Ser-His-D-Bhi-Trp-Tyr-Pro-NHEt] ([pGlu]HWSH[dHis(τ-Bn)]WYP-NHEt) | 5 | 77 | – |
| CCNC(=O)[C@@H]1CCCN1C(=O)[C@H](CCCNC(=N)N)NC(=O)[C@H](Cc1c[nH]c2ccccc12)NC(=O)[C@@H](Cc1cn(Cc2ccccc2)cn1)NC(=O)[C@H](Cc1ccc(O)cc1)NC(=O)[C@H](CO)NC(=O)[C@H](Cc1c[nH]c2ccccc12)NC(=O)[C@H](Cc1c[nH]cn1)NC(=O)[C@@H]1CCC(=O)N1 [Compound 67, pGlu-His-Trp-Ser-Tyr-D-Bhi-Trp-Arg-Pro-NHEt] ([pGlu]HWSY[dHis(τ-Bn)]WRP-NHEt) | 1 | 117 | – |
| CC(C)C[C@H](NC(=O)[C@@H](Cc1c[nH]c2ccccc12)NC(=O)[C@H](Cc1c[nH]cn1)NC(=O)[C@H](CO)NC(=O)[C@H](Cc1c[nH]c2ccccc12)NC(=O)[C@H](Cc1c[nH]cn1)NC(=O)[C@@H]1CCC(=O)N1)C(=O)N[C@@H](CCCNC(=N)N)C(=O)N1CCC[C@H]1C(=O)NCC(N)=O [Compound 68, pGlu-His-Trp-Ser-His-D-Trp-Leu-Arg-Pro-Gly-amide] ([pGlu]HWSH[dW]LRPG-NH2) | 1 | 86 | – |
| NC(=O)CNC(=O)[C@@H]1CCCN1C(=O)[C@H](Cc1ccc(O)cc1)NC(=O)[C@H](Cc1c[nH]c2ccccc12)NC(=O)CNC(=O)[C@H](Cc1c[nH]cn1)NC(=O)[C@H](CO)NC(=O)[C@H](Cc1c[nH]c2ccccc12)NC(=O)[C@H](Cc1c[nH]cn1)NC(=O)[C@@H]1CCC(=O)N1 [GnRH II] ([pGlu]HWSHGWYPG-NH2) | – | – | directly activates these cells |
